According to US20260207563A1, “UREA COMPOUNDS AS ACTIVATORS OF POTASSIUM CHANNELS KV7.2/7.3 USEFUL IN THE TREATMENT OF CNS AND PNS DISORDERS” (ANGELINI PHARMA S.P.A., priority 2022, published 2026):

Key:
Assay type in all cases: cell-based
[1] = target: T1, heteromeric KV7.3/KV7.5 channel (KCNQ3, KCNQ5) (Homo sapiens, UniProt O43525+Q9NR82); experiment: Automated patch-clamp counter-screening against KV7.3/KV7.5 channel; settings: HEK293 cells expressing Kv7.3/KV7.5; class by maximal shift in the Vhalf at 30 μM
T1 construct: host or cells: HEK293
Method in brief: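 Potency came from a 4-parameter logistic fit of mean voltage-of-half-activation shifts, yielding EC50 and maximal shift; selectivity was judged on the shift at 30 μM. Compounds were applied at ten 3-fold dilutions from 30 μM in quadruplicate to HEK293 cells stably carrying Kv7.3 with tet-inducible Kv7.5.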

[2] = target: T2, heteromeric KV7.2/KV7.3 channels (KCNQ2, KCNQ3) (Homo sapiens, UniProt O43525+O43526); experiment: Automated patch-clamp (Sophion Qube 384) potency assay against KV7.2/KV7.3 channels; settings: CHO-K1/Kv7.2/Kv7.3 cells; for EC50: EC50 from concentration-response of shift in Vhalf, 10 concentrations up to 30 μM, read-out: Kv7.2/7.3 EC50; for Kv7.2/7.3 ΔV1/2: maximal shift in the Vhalf from the top of the curve
T2 construct: expressed in transfected cells; host or cells: CHO-K1
Method in brief: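 Activator potency: EC50 from 4-parameter logistic fit of mean Vhalf shift across ten 1-in-3 dilutions starting at 30 μM (n=4), with DMSO (typically 0.3%) control. Currents recorded by leak-subtracted whole-cell clamp of stable CHO-K1 KV7.2/KV7.3 cells, held at −80 mV, stepped −100 to +20 mV then 0 mV tails.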

[3] = target: T3, homomeric KV7.4 channel (KCNQ4) (Homo sapiens, UniProt P56696); experiment: Automated patch-clamp (Qube) counter-screening assay against KV7.4 channel; settings: CHO-K1 cells expressing KV7.4; class by maximal shift in the Vhalf at 30 μM
T3 construct: host or cells: CHO-K1
Method in brief: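 EC50 and maximal shift in half-activation voltage come from 4-parameter logistic fits of mean Vhalf shifts. The series had ten 1-in-3 concentrations, highest 30 μM, each tested in quadruplicate. Recordings used automated Qube patch clamp on a stable CHO-K1 line expressing KCNQ4, and selectivity was judged from the 30 μM Vhalf shift.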

Row | SMILES | EC50 [2] [µM] | Kv7.2/7.3 ΔV1/2 [2] [mV] | Kv7.3/7.5 selectivity criteria [1] | Kv7.4 selectivity criteria [3]
1 | Cc1ccccc1NC(=O)NCc1ccnc(OCC(F)(F)F)c1 [Compound 46, 1-(o-Tolyl)-3-((2-(2,2,2-trifluoroethoxy)pyridin-4-yl)methyl)urea] | 0.432 | 21.41 | B (Non-selective compounds showed Kv7.4 and/or Kv7.3/7.5 ΔV1/2 higher than 15 mV (letter B in table 3)) | B (Non-selective compounds showed Kv7.4 and/or Kv7.3/7.5 ΔV1/2 higher than 15 mV (letter B in table 3))
2 | C[C@H](Oc1cc(CNC(=O)NCCC2(C(F)(F)F)CC2)ccn1)C(F)(F)F [Compound 47, (S)-1-(2-(1-(Trifluoromethyl)cyclopropyl)ethyl)-3-((2-((1,1,1-trifluoropropan-2-yl)oxy)pyridin-4-yl)methyl)urea] | 0.254 | 26.23 | A (Selective compounds showed Kv7.4 and/or Kv7.3/7.5 ΔV1/2 equal to or lower than 15 mV (letter A in table 3)) | A (Selective compounds showed Kv7.4 and/or Kv7.3/7.5 ΔV1/2 equal to or lower than 15 mV (letter A in table 3))
3 | CC(C)(OCCNC(=O)NCc1ccnc(OCC(F)(F)F)c1)C(F)(F)F [Compound 48, 1-(2-((1,1,1-Trifluoro-2-methylpropan-2-yl)oxy)ethyl)-3-((2-(2,2,2-trifluoroethoxy)pyridin-4-yl)methyl)urea] | 2.41 | 22.74 | A (Selective compounds showed Kv7.4 and/or Kv7.3/7.5 ΔV1/2 equal to or lower than 15 mV (letter A in table 3)) | A (Selective compounds showed Kv7.4 and/or Kv7.3/7.5 ΔV1/2 equal to or lower than 15 mV (letter A in table 3))
4 | O=C(NCCC1(C(F)(F)F)CC1)NCc1ccnc(OCC(F)(F)F)n1 [Compound 49, 1-((2-(2,2,2-Trifluoroethoxy)pyrimidin-4-yl)methyl)-3-(2-(1-(trifluoromethyl)cyclopropyl)ethyl)urea] | 4.23 | 23.89 | A (Selective compounds showed Kv7.4 and/or Kv7.3/7.5 ΔV1/2 equal to or lower than 15 mV (letter A in table 3)) | A (Selective compounds showed Kv7.4 and/or Kv7.3/7.5 ΔV1/2 equal to or lower than 15 mV (letter A in table 3))
5 | C[C@@H](Oc1cc(CNC(=O)NCCC2(C(F)(F)F)CC2)ccn1)C(F)(F)F [Compound 51, (R)-1-(2-(1-(Trifluoromethyl)cyclopropyl)ethyl)-3-((2-((1,1,1-trifluoropropan-2-yl)oxy)pyridin-4-yl)methyl)urea] | 0.289 | 33.62 | A (Selective compounds showed Kv7.4 and/or Kv7.3/7.5 ΔV1/2 equal to or lower than 15 mV (letter A in table 3)) | A (Selective compounds showed Kv7.4 and/or Kv7.3/7.5 ΔV1/2 equal to or lower than 15 mV (letter A in table 3))

Continued, in another order:

Row | EC50 [2] [µM] | Kv7.2/7.3 ΔV1/2 [2] [mV] | SMILES | Kv7.3/7.5 selectivity criteria [1] | Kv7.4 selectivity criteria [3]
6 | 7.61 | 22.67 | O=C(NCCC1(C(F)(F)F)CC1)NCc1ccnc(OCc2ncccc2F)c1 [Compound 54, 1-((2-((3-Fluoropyridin-2-yl)methoxy)pyridin-4-yl)methyl)-3-(2-(1-(trifluoromethyl)cyclopropyl)ethyl)urea] | A (Selective compounds showed Kv7.4 and/or Kv7.3/7.5 ΔV1/2 equal to or lower than 15 mV (letter A in table 3)) | A (Selective compounds showed Kv7.4 and/or Kv7.3/7.5 ΔV1/2 equal to or lower than 15 mV (letter A in table 3))
7 | 10.5 | 48.9 | O=C(NCc1ccnc(OCC(F)(F)F)c1)N[C@H]1CCCC[C@H]1O [Compound 58, 1-((1S,2R)-2-Hydroxycyclohexyl)-3-((2-(2,2,2-trifluoroethoxy)pyridin-4-yl)methyl) urea] | B (Non-selective compounds showed Kv7.4 and/or Kv7.3/7.5 ΔV1/2 higher than 15 mV (letter B in table 3)) | B (Non-selective compounds showed Kv7.4 and/or Kv7.3/7.5 ΔV1/2 higher than 15 mV (letter B in table 3))
